Reference: patent US8252563B2, “Reductase, gene thereof and method of using the same” (Sumitomo Chemical Company, Limited, priority 2007, dated 2012)

Legend:
[1] = test system: purified invented protein (active fragment (C)); assay: Substrate specificity: reduction activity of the invented protein on carbonyl compounds (NADPH absorbance decrease at 340 nm); assay type: biochemical, Stenotrophomonas sp. SC-1 strain
[2] = Optimal pH of the reduction activity on ethyl benzoylformate; assay type: biochemical; conditions: ethyl benzoylformate 10 mM, NADPH 0.5 mM, pH 5.5 to 10, 30° C., 1 minute, 340 nm
[3] = substrate 1 mM, NADPH 0.5 mM, 100 mM phosphate buffer pH 7, 30° C., 5 minutes, relative value, activity on ethyl benzoylformate = 100%

## CCOC(=O)C(=O)CCc1ccccc1 [Ethyl 4-phenyl2-oxobutyrate]
[1]; [3]
  Relative activity (%): 1.5%

## CCOC(=O)C(=O)c1ccccc1 [Eethyl benzoylformate, ethyl benzoylformate]
[1]; [3]
  Relative activity (%): 100%

## CCOC(=O)CC(=O)CCl [Ethyl 4-chloro-3-oxobutyrate]
[1]; pH 7
  Relative activity (%): 0.5%

## CCC=O [Propionaldehyde]
[1]; [3]
  Relative activity (%): 8.6%

## COC(=O)CC(=O)CBr [Methyl 4-bromo-3-oxobutyrate]
[1]; [3]
  Relative activity (%): 3.9%

## CCOC(=O)C(C)=O [Ethyl pyruvate]
[1]; [3]
  Relative activity (%): 33.7%

## O=C(O)CCC(=O)c1ccccc1 [3-Benzoylpropionic acid]
[1]; [3]
  Relative activity (%): 3.3%

B1: invented protein (active fragment (C)): purified reductase (SEQ ID NO:1) of Stenotrophomonas sp. SC-1, expressed in E. coli HB101 with plasmid pTrcRs (protein, listed as Stenotrophomonas sp.)
chain: MTATRELGRSGLHVAPIAFGGNVFGWSADEKTSFALLDAFVEAGFNLVDTADVYSAWVPGNQGGESETILGRWFKHSGKRDKVVLATKVAKWSEHPGLSADNITAAVEDSLRRLQTDVIDLYQAHEDDESTPLESTLAAFGRLIEQGKVRAIGASNYSAERLSDALKVSADYKLPRYETLQPEYNLYDRAGYEAGLEAVVRDAQLGVISYYSLASGFLSGKYRSAADAGKSSARGQSVVDKYVNPRGLRILGALDDVASTHGVSPSQIAIAWLIARPGITAPIVSATSVEQLNDVLAAAKVALSAQEVQQLDAASAEQA
[2]
  optimal pH: 7.0
